In ChEMBL document CHEMBL1275534, “Is 60 days of ciprofloxacin administration necessary for postexposure prophylaxis for Bacillus anthracis?” (Antimicrob Agents Chemother, 2008):
In brackets after ≈: the same amount, converted by molar mass.

Legend:
Bacillus anthracis [1] = assay: Antibacterial activity against pX01 and pX02 deficient Bacillus anthracis delta-Sterne after 24 hrs; format: functional
Bacillus anthracis [2] = assay: Effect on growth of pX01 and pX02 deficient Bacillus anthracis delta-Sterne infected in hollow-fiber pharmacodynamic model assessed as maximal vegetative plus spore phase population size at 500 mg every 12 hrs; format: functional

O=C(O)c1cn(C2CC2)c2cc(N3CCNCC3)c(F)cc2c1=O [CIPROFLOXACIN]
MBC (Bacillus anthracis [1]): 1 µg/mL (≈ 3.02 µM)
log10CFU/ml (Bacillus anthracis [2]): 554300000
